In patent US20050164994A1, “Treatment of genitourinary tract disorders” (Control Deliver Systems, Inc., priority 2001, published 2005):
Several values for one entry are separate records, joined by “and”; a condition that tells them apart may be missing. Equal values may be shown once.

Test: Canine study: codrug remaining in 5 mg pellets implanted in the prostate
Type: in vivo
Conditions: dog prostate, 5 mg implant
Procedure: A canine study was performed using a codrug of 5-FU and fluocinolone acetonide (Fa) to evaluate the release rate of the codrug in prostate tissue. The results of that study are detailed in FIGS. 1-3. Two 5 mg pellets of the codrug were implanted in the prostate, and the animals were humanely sacrificed on postoperative days, as indicated. The prostates were removed and levels of the codrug in the pellets determined.

CC1(C)O[C@@H]2CC3C4C[C@H](F)C5=CC(=O)C=C[C@]5(C)[C@@]4(F)[C@@H](O)C[C@]3(C)[C@]2(C(=O)COC(=O)CC(=O)n2c(=O)[nH]cc(F)c2=O)O1 (some centres unmarked) [5-FU + FA]
Codrug Remaining (single pellet) (sacrificed at 28 days): 4.27 mg and 4.24 mg and 4.04 mg and 3.50 mg and 4.14 mg and 4.18 mg and 4.12 mg and 4.23 mg | Codrug Remaining (single pellet) (sacrificed at 42 days): 3.50 mg and 3.33 mg and 3.89 mg and 4.12 mg
